{
  "source": "patent US4150120A",
  "about": "“Ophthalmic” (Takeda Chemical Industries, Ltd., priority 1977, dated 1979)",
  "key": {"[1]": {"tested_on": "acute conjunctivitis (dogs)", "assay": "Treatment of acute conjunctivitis (dogs) by ophthalmic instillation of 0.01% TRH tartrate", "format": "in vivo, dog", "excerpt": "The following examples illustrate the treatment of a case of acute catarrhal conjunctivitis and a case of drug-induced acute conjunctivitis, by ophthalmic instillation of TRH alone."}, "cataract (dogs) [2]": {"tested_on": "cataract (dogs)", "format": "in vivo, dog"}, "cataract (dogs) [3]": {"tested_on": "cataract (dogs)", "format": "in vivo, dog", "protocol": "2, 1977. (Treatment) Starting on Feb. 28, 1977 opthalmic instillations of a 0.01% aqueous solution of free TRH were given 3 times a day. (Treatment) Starting on Aug. […] The right eye was treated simultaneously with the aqueous solution of TRH tartrate alone.", "remark": "listed apart in the source"}, "[4]": {"tested_on": "progressive cataract (dogs)", "set-up": "Evaluation: key to the marks not given beside the values", "conditions": "for Relapse: diagnosed after 3 months"}, "[5]": {"conditions": "Case 3, left eye, with dexamethasone and flavine-adenine dinucleotide, August 20"}},
  "note": "Counter-ions that a name gives are not always drawn. Like-named read-outs stand apart in the source and are kept apart here.",
  "data": [
    {"smiles": "NC(=O)[C@@H]1CCCN1C(=O)[C@H](Cc1cnc[nH]1)NC(=O)[C@@H]1CCC(=O)N1", "note": "[TRH tartrate, L-pyroglutamyl-L-histidyl-L-prolinamide]", "values": [
      {"measurement": "outcome of the case", "setting": "[1]; Case 1, acute catarrhal conjunctivitis", "result": "judged to have been cured"},
      {"measurement": "findings at examination", "setting": "[1]; Case 1, acute catarrhal conjunctivitis, three instillations given every other day, 7th day after start", "result": "neither a hyperemia nor overflowing tears"},
      {"measurement": "findings at examination", "setting": "[1]; Case 2, acute conjunctivitis due to irritation by insecticide, 2 instillations given every other day", "result": "the hyperemia had disappeared and the slightly dilated eye balls had become normal"},
      {"measurement": "outcome of the case", "setting": "[1]; Case 2, drug-induced acute conjunctivitis", "result": "cured"},
      {"measurement": "pupillary reflex", "setting": "cataract (dogs) [2]; Case 1, total cataract, 4 to 5 instillations daily from Feb. 2, on February 28", "result": "normal"},
      {"measurement": "opacity of pupillary area", "setting": "cataract (dogs) [2]; Case 1, on February 28", "result": "reduced opacity"},
      {"measurement": "clarity of the cortex of lens (visual examination)", "setting": "cataract (dogs) [2]; Case 1, on March 10", "result": "improved"},
      {"measurement": "pannus, left eye", "setting": "cataract (dogs) [3]; Case 3, left eye (immature cortical cataract and corneitis), with 0.02% dexamethasone and 0.05% flavine-adenine dinucleotide, 5 to 6 times daily, August 20", "result": "the pannus had disappeared"},
      {"measurement": "ciliary congestion, left eye", "setting": "cataract (dogs) [3]; [5]", "result": "the ciliary congestion persisted"},
      {"measurement": "pupillary reflex and dilation, left eye", "setting": "cataract (dogs) [3]; [5]", "result": "satisfactory"},
      {"measurement": "lens clarity, right eye", "setting": "cataract (dogs) [3]; Case 3, right eye, TRH tartrate solution alone, 5 to 6 times daily, August 20", "result": "increased clarity in the upper margin of the lens"},
      {"measurement": "lens clarity, both eyes", "setting": "cataract (dogs) [3]; Case 3, TRH tartrate solution alone from September 2, September 25", "result": "significantly increased clarity"},
      {"measurement": "lens opacity, both eyes", "setting": "cataract (dogs) [3]; Case 3, TRH tartrate solution and dexamethasone solution twice daily, September 2", "result": "only thinned opacities all over the lens"},
      {"measurement": "side effect at the times of instillation", "setting": "cataract (dogs) [3]; dog, in vivo", "result": "No side effect was noted"},
      {"measurement": "day on which responses were elicited (generally, seven cases)", "setting": "[4]; 0.01% aqueous solution, 3 instillations a day, eye lids pressed after instillation", "result": "third"},
      {"measurement": "result of first course", "setting": "[4]; Case 1, 2 instillations daily for 3 consecutive days, then discontinued", "result": "apparently satisfactory"},
      {"measurement": "outcome of the case", "setting": "[4]; Cases 1 and 2, 0.01% solution, 2 instillations daily", "result": "judged to have been cured"},
      {"measurement": "Evaluation", "setting": "[4]; case 7, serious total cataract (bilateral), 3 instillations daily for 4 days plus TRH.corson injections on 1st and 3rd days", "result": "++"},
      {"measurement": "Relapse", "setting": "[4]; case 7, with adjunct TRH.corson injections", "result": "None"},
      {"measurement": "Evaluation", "setting": "[4]; case 9, transient central cataract due to traumatic corneitis (left eye), 2 instillations daily", "result": "+++"},
      {"measurement": "Relapse", "setting": "[4]; cases 3-6 and 8", "result": "None"},
      {"measurement": "reaction after each instillation (irritation to the conjunctiva)", "setting": "[4]; dog, in vivo", "result": "closed the lids for a while, followed by several blinkings"}
    ]},
    {"smiles": "NC(=O)[C@@H]1CCCN1C(=O)[C@H](Cc1cnc[nH]1)NC(=O)[C@@H]1CCC(=O)N1", "note": "[TRH, L-pyroglutamyl-L-histidyl-L-prolinamide]", "values": [
      {"measurement": "lens of right eye", "setting": "cataract (dogs) [3]; Case 2, senile cataract, 0.01% aqueous solution of free TRH 3 times a day from Feb. 28, on April 23", "result": "the lens cortex of the right eye was remarkably clear"},
      {"measurement": "lens of left eye", "setting": "cataract (dogs) [3]; Case 2, 0.01% free TRH 3 times a day, on April 23", "result": "the circumstances of lens in the left eye could be delineated"},
      {"measurement": "side effect during the instillation period", "setting": "cataract (dogs) [3]; dog, in vivo", "result": "No side effect was observed"}
    ]}
  ]
}
